What all share (test): DTP human tumour cell line panel, 48 h
For test [1], the system named is HT29 colon.
For test [2], the system named is KM12 colon.
Test [3] relates to MDA-MB-231 breast.
The test system of test [4] is NCI-H522 lung.
Test [5] deals with NCI/ADR-RES ovarian.
For test [6], the system named is OVCAR-4 ovarian.
The subject of test [7] is SF-295 CNS.
For test [8], the system named is SK-MEL-28 melanoma.
In test [9] the test system is SW-620 colon.
The test system of test [10] is UACC-62 melanoma.

Where “and” joins values, the source holds several entries; their conditions need not be identical. Identical values can stand only once.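 1) Cells in 96-well plates. 2) Compound, 48 h, 5 concentrations. 3) Linear interpolation between surrounding doses. 4) Unreached endpoint = highest concentration. GI50 marks 50% less growth. Definition used: TGI = concentration required for complete inhibition of growth.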 A value given as a limit tells only on which side of the number the result lay.

Turning to `CC(=O)Nc1ccc2c(c1)nc1c3ccccc3ccn21`, the TGI in test [1], in test [2], in test [3], in [4], in test [5] and in [6] was above 100 µM each time. Also, the TGI in [7], in test [8], in [9] and in test [10] was above 100 µM throughout.
For the molecule `CCC(C)C(NC(=O)C(CCCC[N+](=N)N)NC(=O)C(CCCC[N+](=N)N)NC(=O)c1ccc(OC)cc1)C(=O)NC(CCCC[N+](=N)N)C(=O)N1CCCC1C(=O)NC(CCCCN)C(=O)NC(CC(C)C)C(N)=O` (stereo not drawn), the TGI in test [1], in test [2], in test [3], in test [4], in test [5] and in [6] was above 100 µM throughout. Moreover, the total growth inhibition concentration (TGI) in test [7], in [8], in test [9] and in test [10] was above 100 µM each time.
Take `CCCCCc1cc(CCCC)sc1-c1ccco1`: the TGI in test [1], in test [2], in [3], in test [4], in test [5] and in test [6] was above 100 µM in each case. Further, the TGI in [7], in test [8], in test [9] and in test [10] was above 100 µM throughout.
Take `O=C(O)CCSc1ncnc2nc[nH]c12`: the TGI in [1], in test [2], in test [3], in [4], in [5] and in test [6] was above 100 µM throughout. The TGI in [7], in test [8], in [9] and in test [10] was above 100 µM each time.
With `CCOC(=O)OC1(c2ccccc2)CCN(C)CC1`, the TGI in [1], in test [2], in [3], in test [4], in test [5] and in [6] was above 100 µM throughout. The TGI in [7], in [8], in test [9] and in test [10] was above 100 µM each time.
On to `CC1CCc2sc3[nH]c(=S)n(C)c(=O)c3c2C1` (stereo not drawn), for which the TGI in test [1] is above 100 µM; in [2] it was above 100 µM; in [3] it was above 100 µM; in test [4], 84.5 µM; in test [5], above 100 µM; in test [6] it was above 100 µM. Besides, the concentration for total growth inhibition (TGI) in test [7], in test [8], in [9] and in test [10] was above 100 µM in each case.
On to `O=C(CCl)Nc1ccc(C(=O)N/N=C/c2ccc(Cl)cc2)cc1`, for which the GI50 in [1] was 2.25 µM; in test [2], 1.84 µM; in test [3] it was 0.198 µM; in [5], 1.5 µM; in test [7], 1.65 µM; in [8] it was 3.59 µM. In addition, the GI50 is 3.35 µM in test [9] and 1.71 µM in [10]. In addition, the TGI in test [1] was 3.18 µM and 4.61 µM; in test [2], 3.84 µM and 2.74 µM; in [3], 3.68 µM and 0.417 µM; in test [4], 3.6 µM and 3.61 µM; in test [5], 8 µM and 3.38 µM; in [6], 4.48 µM and 4.43 µM. The TGI was 3.1 µM and 9.23 µM in test [7]; 16.8 µM in [8]; 6.81 µM and 7.06 µM in test [9]; 3.2 µM and 8.78 µM in [10].
Regarding `Clc1sc(Cl)c2c1[C@H](Br)C[C@@H]2Cl`, the TGI in test [1] is above 100 µM; in test [2], above 100 µM; in [3], 51.3 µM; in test [4], 33.5 µM; in test [5], 44.2 µM; in test [6], above 100 µM. The total growth inhibition concentration (TGI) in [7] was above 100 µM; in test [8] it was 71 µM; in test [9] it was 45.6 µM; in [10], 69.1 µM.
On to `CC1OC2OC3C(OCC(O)C3O)OC(=O)[C@]34CCC(C)(C)CC3C3=CCC5[C@@]6(C)C[C@H](O)[C@H](OC7OC(CO)C(O)C(O)C7OC7OC(COC(=O)CC(C)(O)CC(=O)OC1C(OC1OC(CO)C(O)C(O)C1O)C2O)C(O)C(O)C7O)[C@@](C)(CO)C6CC[C@@]5(C)[C@]3(C)CC4` (stereo partly drawn), for which the concentration for total growth inhibition (TGI) in [1] is 3.35 µM; in test [2], 8.24 µM; in test [3], 16.4 µM; in test [4], 5.89 µM; in test [5], 11.7 µM; in [6] it was 16.1 µM. Besides, the concentration for total growth inhibition (TGI) in [7] is 3.72 µM; in test [8], 2.58 µM; in test [9] it was 11.2 µM; in [10], 3.38 µM.
On to `N#Cc1ccnc(C(=O)N2CCCC2C(=O)O)c1` (stereo not drawn), for which the total growth inhibition concentration (TGI) in test [1], in test [2], in test [3], in [4], in test [5] and in [6] was above 100 µM each time. Besides, the total growth inhibition concentration (TGI) in test [7], in [8], in [9] and in test [10] was above 100 µM each time.
As for `O=C(O)C12C3C4(C(=O)O)C1C1(C(=O)O)C2C3(C(=O)O)C41` (stereo not drawn), the total growth inhibition concentration (TGI) in [1], in test [2], in test [3], in test [4], in test [5] and in test [6] was above 100 µM each time. The TGI in [7], in test [8], in [9] and in [10] was above 100 µM in each case.
As to `CC(Br)CN(CC(C)Br)c1ccc2c(c1)Cc1ccccc1-2` (stereo not drawn), the TGI amounted to 25.9 µM in test [1]; 31.4 µM in test [2]; 26.8 µM in test [3]; 21.2 µM in [4]; 38.4 µM in test [5]; 25.9 µM in [6]. The TGI came to 22.6 µM in [7], 37.3 µM in test [8], 40.2 µM in [9] and 24.2 µM in test [10].
For the molecule `O=C1c2cccnc2C(=O)c2c1nc1ccccc1c2-c1ccc2c3c(nc4ccccc42)C(=O)c2cccnc2-c13`, the TGI in [1] came out at 7.57 µM; in test [2] it was 12.5 µM; in test [3], 9.49 µM; in [4] it was 4.58 µM; in test [5], 5.16 µM; in test [6], 14 µM. The TGI in [7] came to 7.68 µM; in test [8] it was 13.5 µM; in [9] it was 4.79 µM; in [10] it was 5.1 µM.
`COC(=O)[C@@H]1[C@H]2CC[C@]3(C)[C@@H](OC(C)=O)CC[C@H]3[C@@H]2CC[C@H]1C1(C)SCCS1`: the TGI is 30 µM in test [1]; 74.2 µM in test [2]; 62.1 µM in test [3]; 56.7 µM in test [4]; 57.1 µM in test [5]; 75.2 µM in test [6]. Further, the total growth inhibition concentration (TGI) was 73.6 µM in [7], above 100 µM in [8], above 100 µM in test [9] and above 100 µM in test [10].
Regarding `CSc1ncnc2c1cnn2Cc1cn(COCC(O)CO)nn1` (stereo not drawn), the total growth inhibition concentration (TGI) in test [1] is above 100 µM; in test [2] it was above 100 µM; in test [3] it was above 100 µM; in test [4], 44.6 µM; in test [5] it was above 100 µM; in test [6], above 100 µM. Further, the TGI in test [7], in [8], in test [9] and in test [10] was above 100 µM each time.
For the molecule `COc1cc2c3cc1Oc1cc(ccc1O)C[C@@H]1c4c(cc(OC)c(O)c4Oc4ccc(cc4)C[C@@H]3[N+](C)(C)CC2)CC[N+]1(C)C`, the TGI in test [1], in test [2], in test [3], in test [4], in test [5] and in test [6] was above 100 µM in each case. Further, the concentration for total growth inhibition (TGI) was 50.5 µM in test [7], above 100 µM in [8], above 100 µM in [9] and above 100 µM in test [10].

One may read the TGI as the concentration giving total growth inhibition. By GI50 is commonly meant the concentration at which growth is held to half of that of the control.
